In patent publication US8378104B2 (OSI Pharmaceuticals, LLC, priority 2010, dated 2013):
Where a name gives a salt, the structure may show the parent alone.

Experiments:
TAK1-TAB1 fusion protein = molecular target: T1, TAK1-TAB1 fusion protein (Homo sapiens, UniProt O43318); assay: TAK1 biochemical assay (AlphaScreen, GST-MAP2K7 substrate); details: TAK1-TAB1 fusion protein, GST-MAP2K7 substrate; read-out: mean TAK1 IC50 (Col. A)
T1 construct: purchased Carna
T1 sequence (O43318 with tags, fused parts or gaps limits assumed): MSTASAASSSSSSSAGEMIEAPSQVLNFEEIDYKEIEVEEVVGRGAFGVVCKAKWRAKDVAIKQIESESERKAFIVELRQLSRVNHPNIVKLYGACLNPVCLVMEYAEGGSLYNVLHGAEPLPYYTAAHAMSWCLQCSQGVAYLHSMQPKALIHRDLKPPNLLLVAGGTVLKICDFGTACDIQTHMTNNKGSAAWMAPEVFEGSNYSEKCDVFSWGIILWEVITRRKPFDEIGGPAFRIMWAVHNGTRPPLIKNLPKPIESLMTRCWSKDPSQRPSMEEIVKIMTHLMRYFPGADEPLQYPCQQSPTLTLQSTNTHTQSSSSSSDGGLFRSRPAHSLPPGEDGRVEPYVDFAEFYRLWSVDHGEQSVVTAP

pJNK in HCT-116 cells = assay: Phospho-JNK (Thr183/Tyr185) Meso Scale ELISA assay, TNFα-stimulated HCT-116 cells; format: cell-based; details: Homo sapiens, read-out: mean HCT-116 pJNK ELISA IC50 (Col. B)
In short: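 Meso Scale ELISA read of phospho-JNK (Thr183/Tyr185) in lysed HCT-116 cells. Cells were serum-reduced to 1% FCS for 2 hours, exposed to test drug for 4 hrs at 37° C, then given 10 ng/mL TNFα (final) for 10 minutes before lysis.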

p-p38 in HCT-116 cells = assay: Phospho-p38 Meso Scale ELISA assay, TNFα-stimulated HCT-116 cells; format: cell-based; details: Homo sapiens, read-out: mean HCT-116 p-p38 ELISA IC50 (Col. C)
In short: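 Phospho-p38 measured by Meso Scale ELISA on diluted lysates, captured overnight at 4° C. Before lysis, HCT-116 cells were serum-reduced (1% FCS, 2 h), treated with compounds 4 h at 37° C and stimulated 10 min with 10 ng/mL TNFα final.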

Row | SMILES | IC50 (TAK1-TAB1 fusion protein) | IC50 (pJNK in HCT-116 cells) | IC50 (p-p38 in HCT-116 cells)
1 | CC(=O)N1CCC(n2cc(-c3cnc(N)c4oc(-c5cccc6cnccc56)cc34)cn2)CC1 [Example 81, 1-(4-{4-[7-amino-2-(isoquinolin-5-yl)furo[2,3-c]pyridin-4-yl]-1H-pyrazol-1-yl}piperidin-1-yl)ethanone] | 100 to 1000 nM | 100 to 1000 nM | 100 to 1000 nM
2 | COCC(=O)N1CCC(n2cc(-c3cnc(N)c4oc(-c5cccc6cnccc56)cc34)cn2)CC1 [Example 50, 1-(4-{4-[7-amino-2-(isoquinolin-5-yl)furo[2,3-c]pyridin-4-yl]-1H-pyrazol-1-yl}piperidin-1-yl)-2-methoxyethanone] | 100 to 1000 nM | 100 to 1000 nM | 100 to 1000 nM
3 | CC(=O)N1CCC(n2cc(-c3cnc(N)c4oc(-c5ccc6c(c5)C(=O)NC6)cc34)cn2)CC1 [Example 96, 6-{4-[1-(1-acetylpiperidin-4-yl)-1H-pyrazol-4-yl]-7-aminofuro[2,3-c]pyridin-2-yl}-2,3-dihydro-1H-isoindol-1-one] | 100 to 1000 nM | 1000 to 10000 nM | > 10000 nM
4 | Nc1ncc(-c2cnn(C3CCN(CC(F)(F)F)CC3)c2)c2cc(-c3cccc4cnccc34)oc12 [Example 84, 2-(isoquinolin-5-yl)-4-{1-[1-(2,2,2-trifluoroethyl)piperidin-4-yl]-1H-pyrazol-4-yl}furo[2,3-c]pyridin-7-amine] | 1000 to 10000 nM | 100 to 1000 nM | 100 to 1000 nM
5 | Nc1ncc(-c2cnn([C@@H]3C[C@@H](O)[C@@H](O)C3)c2)c2cc(-c3csc4cnccc34)oc12 [Example 311, rel-(1R,2S,4S)-4-[4-(7-amino-2-thieno[2,3-c]pyridin-3-yl-furo[2,3-c]pyridin-4-yl)-pyrazol-1-yl]-cyclopentane-1,2-diol] | < 100 nM | 100 to 1000 nM | 100 to 1000 nM
6 | Nc1ncc(-c2cnn(C3CCNCC3)c2)c2cc(-c3ccc4[nH]ccc4c3)oc12 [Example 38, 2-(1H-indol-5-yl)-4-[1-(piperidin-4-yl)-1H-pyrazol-4-yl]furo[2,3-c]pyridin-7-amine] | 100 to 1000 nM | 1000 to 10000 nM | 1000 to 10000 nM
7 | CC(=O)N1CCC(n2cc(-c3cnc(N)c4oc(-c5ccsc5)cc34)cn2)CC1 [Example 174, 1-(4-{4-[7-amino-2-(thiophen-3-yl)furo[2,3-c]pyridin-4-yl]-1H-pyrazol-1-yl}piperidin-1-yl)ethanone] | 100 to 1000 nM | 1000 to 10000 nM | 1000 to 10000 nM
8 | Nc1ncc(-c2cnn(C3CCNCC3)c2)c2cc(-c3cccc4cnsc34)oc12 [Example 323, 2-benzo[d]isothiazol-7-yl-4-(1-piperidin-4-yl-1H-pyrazol-4-yl)-furo[2,3-c]pyridin-7-ylamine] | < 100 nM | 1000 to 10000 nM | 100 to 1000 nM
9 | Nc1ncc(-c2cnn(C[C@@H](O)CO)c2)c2cc(-c3csc4cnccc34)oc12 [Example 317, (R)-3-[4-(7-amino-2-thieno[2,3-c]pyridin-3-yl-furo[2,3-c]pyridin-4-yl)-pyrazol-1-yl]-propane-1,2-diol] | < 100 nM | 1000 to 10000 nM | 1000 to 10000 nM
10 | CC(=O)N1CCC(n2cc(-c3cnc(N)c4oc(-c5cccn6ccnc56)cc34)cn2)CC1 [Example 221, 1-(4-{4-[7-amino-2-(imidazo[1,2-a]pyridin-8-yl)furo[2,3-c]pyridin-4-yl]-1H-pyrazol-1-yl}piperidin-1-yl)ethanone bis(trifluoroacetate)] | 100 to 1000 nM | 100 to 1000 nM | 100 to 1000 nM
11 | CC(=O)N1CCC(n2cc(-c3cnc(N)c4oc(-c5cc(C(F)(F)F)cc(C(F)(F)F)c5)cc34)cn2)CC1 [Example 91, 1-[4-(4-{7-amino-2-[3,5-bis(trifluoromethyl)phenyl]furo[2,3-c]pyridin-4-yl}-1H-pyrazol-1-yl)piperidin-1-yl]ethanone] | > 10000 nM | 1000 to 10000 nM | 1000 to 10000 nM
12 | CC(C)(C)OC(=O)N1CCC(n2cc(-c3cnc(N)c4oc(-c5cccc6cnsc56)cc34)cn2)CC1 [Example 302, 4-[4-(7-amino-2-benzo[d]isothiazol-7-yl-furo[2,3-c]pyridin-4-yl)-pyrazol-1-yl]-piperidine-1-carboxylic acid tert-butyl ester] | 100 to 1000 nM | 100 to 1000 nM | 1000 to 10000 nM
13 | CC(=O)N1CCC(n2cc(-c3cnc(N)c4oc(-c5ccc6c(c5)CNC6=O)cc34)cn2)CC1 [Example 98, 5-{4-[1-(1-acetylpiperidin-4-yl)-1H-pyrazol-4-yl]-7-aminofuro[2,3-c]pyridin-2-yl}-2,3-dihydro-1H-isoindol-1-one] | > 10000 nM | > 10000 nM | > 10000 nM
14 | CC(=O)N1CCC(n2cc(-c3cnc(N)c4oc(-c5cccc6[nH]ccc56)cc34)cn2)CC1 [Example 176, 1-(4-{4-[7-amino-2-(1H-indol-4-yl)furo[2,3-c]pyridin-4-yl]-1H-pyrazol-1-yl}piperidin-1-yl)ethanone] | < 100 nM | 100 to 1000 nM | 100 to 1000 nM
15 | CC(=O)N1CCC(n2cc(-c3cnc(N)c4oc(-c5ccc6nn(C)cc6c5)cc34)cn2)CC1 [Example 145, 1-(4-{4-[7-amino-2-(2-methyl-2H-indazol-5-yl)furo[2,3-c]pyridin-4-yl]-1H-pyrazol-1-yl}piperidin-1-yl)ethanone] | > 10000 nM | 1000 to 10000 nM | 1000 to 10000 nM
16 | CC(C)N1CCC(n2cc(-c3cnc(N)c4oc(-c5cccc6cnccc56)cc34)cn2)CC1 [Example 79, 2-(isoquinolin-5-yl)-4-{1-[1-(propan-2-yl)piperidin-4-yl]-1H-pyrazol-4-yl]furo[2,3-c]pyridin-7-amine] | 100 to 1000 nM | 100 to 1000 nM | 100 to 1000 nM

Further lines, results first:

Row | IC50 (TAK1-TAB1 fusion protein) | IC50 (pJNK in HCT-116 cells) | IC50 (p-p38 in HCT-116 cells) | SMILES
17 | < 100 nM | 1000 to 10000 nM | 100 to 1000 nM | CNc1ncc(-c2cnn(C3CCN(C(C)=O)CC3)c2)c2cc(-c3c[nH]c4cnccc34)oc12 [Example 280, 1-(4-{4-[7-(methylamino)-2-(1H-pyrrolo[2,3-c]pyridin-3-yl)furo[2,3-c]pyridin-4-yl]-1H-pyrazol-1-yl}piperidin-1-yl)ethanone trifluoroacetic acid salt]
18 | 1000 to 10000 nM | 100 to 1000 nM | 1000 to 10000 nM | Cc1nn(CC(C)(C)O)cc1-c1cnc(N)c2oc(-c3csc4cnccc34)cc12 [Example 289, 1-[4-(7-amino-2-thieno[2,3-c]pyridin-3-yl-furo[2,3-c]pyridin-4-yl)-3-methyl-pyrazol-1-yl]-2-methyl-propan-2-ol]
19 | 100 to 1000 nM | 1000 to 10000 nM | 1000 to 10000 nM | CC(=O)N1CCC(n2cc(-c3cnc(N)c4oc(-c5cccc6c5CC(=O)N6)cc34)cn2)CC1 [Example 227, 4-{4-[1-(1-acetylpiperidin-4-yl)-1H-pyrazol-4-yl]-7-aminofuro[2,3-c]pyridin-2-yl}-1,3-dihydro-2H-indol-2-one]
20 | < 100 nM | 100 to 1000 nM | 100 to 1000 nM | Nc1ncc(-c2cnn(C3CCNCC3)c2)c2cc(-c3ccc4[nH]ncc4c3)oc12 [Example 18, 2-(1H-indazol-5-yl)-4-[1-(piperidin-4-yl)-1H-pyrazol-4-yl]furo[2,3-c]pyridin-7-amine hydrochloride]
21 | 1000 to 10000 nM | 1000 to 10000 nM | 1000 to 10000 nM | CC(=O)N1CCC(n2cc(-c3cnc(N)c4oc(-c5ccc6c(c5)OCO6)cc34)cn2)CC1 [Example 117, 1-(4-{4-[7-amino-2-(1,3-benzodioxol-5-yl)furo[2,3-c]pyridin-4-yl]-1H-pyrazol-1-yl}piperidin-1-yl)ethanone]
22 | 100 to 1000 nM | 100 to 1000 nM | 100 to 1000 nM | CC(=O)N1CCC(n2cc(-c3cnc(N)c4oc(-c5csc6ccccc56)cc34)cn2)CC1 [Example 219, 1-(4-{4-[7-amino-2-(1-benzothiophen-3-yl)furo[2,3-c]pyridin-4-yl]-1H-pyrazol-1-yl}piperidin-1-yl)ethanone]
23 | 1000 to 10000 nM | 100 to 1000 nM | 1000 to 10000 nM | COc1cc2c(-c3cc4c(-c5cnn(C6CCN(C(C)=O)CC6)c5)cnc(N)c4o3)csc2cn1 [Example 243, 1-(4-{4-[7-amino-2-(5-methoxythieno[2,3-c]pyridin-3-yl)furo[2,3-c]pyridin-4-yl]-1H-pyrazol-1-yl}piperidin-1-yl)ethanone]
24 | < 100 nM | 100 to 1000 nM | 1000 to 10000 nM | CC(=O)N1CCC(n2cc(-c3cnc(N)c4oc(-c5c(C)sc6cnccc56)cc34)cn2)CC1 [Example 253, 1-(4-{4-[7-amino-2-(2-methylthieno[2,3-c]pyridin-3-yl)furo[2,3-c]pyridin-4-yl]-1H-pyrazol-1-yl}piperidin-1-yl)ethanone trifluoroacetate]
25 | 100 to 1000 nM | 100 to 1000 nM | 1000 to 10000 nM | CC(=O)N1CCC(n2cc(-c3cnc(N)c4oc(-c5cccc(CO)c5)cc34)cn2)CC1 [Example 169, 1-[4-(4-{7-amino-2-[3-(hydroxymethyl)phenyl]furo[2,3-c]pyridin-4-yl}-1H-pyrazol-1-yl)piperidin-1-yl]ethanone]
